Measured values: article PMC4980693, “TRPV4 regulates calcium homeostasis, cytoskeletal remodeling, conventional outflow and intraocular pressure in the mammalian eye” (Scientific Reports, 2016)

What was measured:
[1] = biological target: T1, TRPV4 (transient receptor potential vanilloid 4) (Homo sapiens, UniProt Q9HBA0); test: whole-cell patch clamp and Fura-2 Ca2+ imaging in human trabecular meshwork cells (endogenous channel), agonist; format: cell-based
[2] = biological target: T1, TRPV4 (transient receptor potential vanilloid 4); test: inhibition of GSK101 ([…])-induced Ca2+ signals in human trabecular meshwork cells (Fura-2); putative prodrug analog of HC-067047; format: cell-based

T1 sequence (Q9HBA0 whole entry): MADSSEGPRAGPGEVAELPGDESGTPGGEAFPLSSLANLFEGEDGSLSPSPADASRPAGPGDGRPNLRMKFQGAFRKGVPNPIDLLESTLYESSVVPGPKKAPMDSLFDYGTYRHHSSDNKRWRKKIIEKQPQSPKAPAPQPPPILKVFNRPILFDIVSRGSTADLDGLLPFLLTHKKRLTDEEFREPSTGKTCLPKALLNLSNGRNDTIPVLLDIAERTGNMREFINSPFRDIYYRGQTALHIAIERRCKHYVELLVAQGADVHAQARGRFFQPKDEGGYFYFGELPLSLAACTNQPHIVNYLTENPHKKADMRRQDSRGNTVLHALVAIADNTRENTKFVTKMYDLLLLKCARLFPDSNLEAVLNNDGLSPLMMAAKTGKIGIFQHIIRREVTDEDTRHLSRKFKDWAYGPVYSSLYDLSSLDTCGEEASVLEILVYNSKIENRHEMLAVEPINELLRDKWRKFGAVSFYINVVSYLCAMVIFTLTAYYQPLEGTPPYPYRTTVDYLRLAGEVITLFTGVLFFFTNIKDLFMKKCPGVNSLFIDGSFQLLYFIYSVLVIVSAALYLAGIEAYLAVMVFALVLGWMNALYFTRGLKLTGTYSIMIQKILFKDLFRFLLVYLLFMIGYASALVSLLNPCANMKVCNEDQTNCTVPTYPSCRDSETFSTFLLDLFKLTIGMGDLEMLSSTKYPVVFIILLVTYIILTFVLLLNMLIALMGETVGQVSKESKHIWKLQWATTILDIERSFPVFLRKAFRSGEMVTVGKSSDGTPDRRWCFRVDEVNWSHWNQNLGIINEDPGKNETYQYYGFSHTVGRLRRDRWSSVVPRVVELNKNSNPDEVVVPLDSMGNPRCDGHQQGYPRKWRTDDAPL

| IC50 [2] [nM] | SMILES | EC50 [1] [nM] |
| --- | --- | --- |
|  | CC(C)C[C@H](NC(=O)c1cc2ccccc2s1)C(=O)N1CCN(C(=O)[C@H](CO)NS(=O)(=O)c2ccc(Cl)cc2Cl)CC1 [GSK101, GSK1016790A] | ~25 |
| 740 ± 40 | Cc1c(C(=O)Nc2cccc(C(=O)OC(C)C)c2)cc(-c2ccccc2)n1CCCN1CCOCC1 [YX-02, isopropyl 3-(2-methyl-1-(3-morpholinopropyl)-5-phenyl-1H-pyrrole-3-carboxamido)benzoate] |  |
